Test results: patent publication US9062124B2, “GIP-based mixed agonists for treatment of metabolic disorders and obesity” (priority 2008, dated 2015)
Where a SMILES comes first, the peptide text is derived from it. Bridges are numbered along the chain shown (N, C = ends). [ ]: non-standard residue; d: D form. Aib = CC(C)(N)C(=O)O

Columns and labels:
Assay type in all cases: cell-based
GLP-1 receptor = target: T1, GLP-1 receptor (Homo sapiens, UniProt P43220); experiment: cAMP synthesis functional assay (firefly luciferase reporter in HEK293 cells), GLP-1 receptor; conditions: for EC50: GLP-1 Receptor EC50, nM
T1 construct: expressed in transfected cells; host or cells: HEK293
T1 sequence (P43220 24-463, species assumed): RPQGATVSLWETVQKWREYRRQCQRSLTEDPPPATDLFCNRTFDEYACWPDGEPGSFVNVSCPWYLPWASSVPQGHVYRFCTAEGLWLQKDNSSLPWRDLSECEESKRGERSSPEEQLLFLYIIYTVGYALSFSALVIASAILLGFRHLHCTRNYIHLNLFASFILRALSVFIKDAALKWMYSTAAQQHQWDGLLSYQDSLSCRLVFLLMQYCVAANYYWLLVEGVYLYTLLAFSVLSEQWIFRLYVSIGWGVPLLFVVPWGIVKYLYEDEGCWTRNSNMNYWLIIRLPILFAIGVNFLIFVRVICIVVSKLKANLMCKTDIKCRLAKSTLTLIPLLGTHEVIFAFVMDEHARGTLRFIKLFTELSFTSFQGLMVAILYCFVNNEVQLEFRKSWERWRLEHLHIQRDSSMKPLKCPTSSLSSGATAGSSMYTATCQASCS

glucagon receptor = target: T2, glucagon receptor (Homo sapiens, UniProt P47871); experiment: cAMP synthesis functional assay (firefly luciferase reporter in HEK293 cells), glucagon receptor
T2 construct: expressed in transfected cells; host or cells: HEK293
T2 sequence (P47871 26-477): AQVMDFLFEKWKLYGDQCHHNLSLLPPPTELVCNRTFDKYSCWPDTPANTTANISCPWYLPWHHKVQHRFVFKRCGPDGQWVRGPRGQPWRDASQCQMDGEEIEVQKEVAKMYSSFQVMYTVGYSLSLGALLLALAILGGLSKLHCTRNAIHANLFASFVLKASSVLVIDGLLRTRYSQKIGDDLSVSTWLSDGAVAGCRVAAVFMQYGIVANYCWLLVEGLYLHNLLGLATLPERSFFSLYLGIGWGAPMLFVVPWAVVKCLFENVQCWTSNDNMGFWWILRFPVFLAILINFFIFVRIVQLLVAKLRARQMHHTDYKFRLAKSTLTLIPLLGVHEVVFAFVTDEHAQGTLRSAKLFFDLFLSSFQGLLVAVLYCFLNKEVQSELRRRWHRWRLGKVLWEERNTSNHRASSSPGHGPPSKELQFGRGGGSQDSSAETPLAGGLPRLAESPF

[1] = tested on: glucagon receptor, GLP-1 receptor or GIP receptor; experiment: Agonist profile across receptors assigned from the cAMP reporter assay data; conditions: assigned from the in vitro EC50 data of Tables 1-4
GIP receptor = target: T3, GIP receptor (Homo sapiens, UniProt P48546); experiment: cAMP synthesis functional assay (firefly luciferase reporter in HEK293 cells), GIP receptor
T3 construct: expressed in transfected cells; host or cells: HEK293
T3 sequence (P48546 22-466): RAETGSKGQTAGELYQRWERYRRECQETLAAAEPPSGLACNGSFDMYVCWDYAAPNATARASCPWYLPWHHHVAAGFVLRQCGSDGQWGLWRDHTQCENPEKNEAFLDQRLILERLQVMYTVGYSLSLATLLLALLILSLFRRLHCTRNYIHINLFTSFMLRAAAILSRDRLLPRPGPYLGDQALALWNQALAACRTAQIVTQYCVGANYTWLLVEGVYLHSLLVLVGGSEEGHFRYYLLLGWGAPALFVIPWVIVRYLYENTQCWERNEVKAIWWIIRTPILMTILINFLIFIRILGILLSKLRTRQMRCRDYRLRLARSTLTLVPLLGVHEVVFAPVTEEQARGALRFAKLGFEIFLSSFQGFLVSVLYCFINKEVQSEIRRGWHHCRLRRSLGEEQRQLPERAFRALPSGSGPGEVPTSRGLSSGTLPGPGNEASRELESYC

[2] = Table 1, relative to the native hormone of the indicated receptor
[3] = relative to the standard (Std.) EC50 of the same run

Compound | EC50 (GLP-1 receptor; Table 1) [nM] | GLP-1 Receptor relative activity (GLP-1 receptor; [2]) [%] | Glucagon Receptor relative activity (glucagon receptor; [2]) [%] | receptor activity profile (glucagon / GLP-1 / GIP agonism) [1] | GIP Receptor relative activity (GIP receptor; [2]) [%] | EC50 (glucagon receptor; Glucagon Receptor EC50, nM, Table 1) [nM] | EC50 (GIP receptor; GIP Receptor EC50, nM, Table 1) [nM] | GLP-1 Receptor relative activity (GLP-1 receptor; [3]) [%] | EC50 (glucagon receptor; Glucagon Receptor EC50, cAMP luciferase reporter assay as in Example 16) [nM] | Glucagon Receptor relative activity (glucagon receptor; [3]) [%] | GIP Receptor relative activity (GIP receptor; [3]) [%]
CC[C@H](C)[C@H](NC(=O)[C@H](Cc1ccccc1)NC(=O)[C@H](CCC(=O)O)NC(=O)[C@@H]1CCCCNC(=O)CC[C@H](NC(=O)[C@H](CC(=O)O)NC(=O)[C@H](CC(C)C)NC(=O)[C@H](Cc2ccc(O)cc2)NC(=O)[C@@H](NC(=O)[C@H](CO)NC(=O)[C@H](Cc2ccc(O)cc2)NC(=O)[C@H](CC(=O)O)NC(=O)[C@H](CO)NC(=O)[C@@H](NC(=O)[C@H](Cc2ccccc2)NC(=O)[C@@H](NC(=O)CNC(=O)[C@H](CCC(=O)O)NC(=O)[C@H](CO)NC(=O)[C@@H](N)Cc2ccc(O)cc2)[C@@H](C)O)[C@@H](C)O)[C@@H](C)CC)C(=O)N[C@@H](CCC(N)=O)C(=O)N[C@@H](C)C(=O)N[C@@H](C)C(=O)N1)C(=O)N[C@@H](C)C(=O)N[C@@H](Cc1c[nH]c2ccccc12)C(=O)N[C@@H](CC(C)C)C(=O)N[C@@H](CC(C)C)C(=O)N[C@@H](C)C(=O)NCC(=O)NCC(=O)N1CCC[C@H]1C(=O)N[C@@H](CO)C(=O)N[C@@H](CO)C(=O)NCC(=O)N[C@@H](C)C(=O)N1CCC[C@H]1C(=O)N1CCC[C@H]1C(=O)N1CCC[C@H]1C(=O)N[C@@H](CO)C(N)=O [mt-148] (H-YSEGTFTSDYSIYLDEQAAKEFIAWLLAGGPSSGAPPPS-NH2; lactam 16-20; N-terminus assumed) | 0.098 | 36.22 | 2.14 | exemplary GLP-1/GIP co-agonist peptides | 65.26 |  |  |  |  |  | 
CC[C@H](C)[C@H](NC(=O)[C@H](CO)NC(=O)[C@H](Cc1ccc(O)cc1)NC(=O)[C@H](CC(=O)O)NC(=O)[C@H](CO)NC(=O)[C@@H](NC(=O)[C@H](Cc1ccccc1)NC(=O)[C@@H](NC(=O)CNC(=O)[C@H](CCC(N)=O)NC(=O)[C@@H](C)NC(=O)[C@@H](N)Cc1ccc(O)cc1)[C@@H](C)O)[C@@H](C)O)C(=O)N[C@@H](Cc1ccc(O)cc1)C(=O)N[C@@H](CC(C)C)C(=O)N[C@@H](CC(=O)O)C(=O)N[C@H]1CCC(=O)NCCCC[C@@H](C(=O)N[C@@H](CCC(=O)O)C(=O)N[C@@H](Cc2ccccc2)C(=O)N[C@H](C(=O)N[C@@H](CC(N)=O)C(=O)N[C@@H](Cc2c[nH]c3ccccc23)C(=O)N[C@@H](CC(C)C)C(=O)N[C@@H](CC(C)C)C(=O)N[C@@H](C)C(=O)NCC(=O)NCC(=O)N2CCC[C@H]2C(=O)N[C@@H](CO)C(=O)N[C@@H](CO)C(=O)NCC(=O)N[C@@H](C)C(=O)N2CCC[C@H]2C(=O)N2CCC[C@H]2C(=O)N2CCC[C@H]2C(=O)N[C@@H](CO)C(=O)N[C@@H](CS)C(N)=O)C(C)C)NC(=O)[C@H](C)NC(=O)[C@H](C)NC(=O)[C@H](CCC(N)=O)NC1=O [mt-166] (H-Y[dA]QGTFTSDYSIYLDEQAAKEFVNWLLAGGPSSGAPPPSC-NH2; lactam 16-20; N-terminus assumed) |  | 26.87 | 9.83 | exemplary GLP-1/GIP/glucagon triagonist peptides | 5.94 |  |  |  |  |  | 
CC[C@H](C)[C@H](NC(=O)[C@H](CO)NC(=O)[C@H](Cc1ccc(O)cc1)NC(=O)[C@H](CC(=O)O)NC(=O)[C@H](CO)NC(=O)[C@@H](NC(=O)[C@H](Cc1ccccc1)NC(=O)[C@@H](NC(=O)CNC(=O)[C@H](CCC(=O)O)NC(=O)[C@H](C)NC(=O)[C@@H](N)Cc1ccc(O)cc1)[C@@H](C)O)[C@@H](C)O)C(=O)N[C@@H](Cc1ccc(O)cc1)C(=O)N[C@@H](CC(C)C)C(=O)N[C@@H](CC(=O)O)C(=O)N[C@H]1CCC(=O)NCCCC[C@@H](C(=O)N[C@@H](CCC(=O)O)C(=O)N[C@@H](Cc2ccccc2)C(=O)N[C@H](C(=O)N[C@@H](CC(N)=O)C(=O)N[C@@H](Cc2c[nH]c3ccccc23)C(=O)N[C@@H](CC(C)C)C(=O)N[C@@H](CC(C)C)C(=O)N[C@@H](C)C(=O)NCC(=O)NCC(=O)N2CCC[C@H]2C(=O)N[C@@H](CO)C(=O)N[C@@H](CO)C(=O)NCC(=O)N[C@@H](C)C(=O)N2CCC[C@H]2C(=O)N2CCC[C@H]2C(=O)N2CCC[C@H]2C(=O)N[C@@H](CO)C(N)=O)C(C)C)NC(=O)[C@H](C)NC(=O)[C@H](C)NC(=O)[C@H](CCC(N)=O)NC1=O [mt-149] (H-YAEGTFTSDYSIYLDEQAAKEFVNWLLAGGPSSGAPPPS-NH2; lactam 16-20; N-terminus assumed) | 0.036 | 97.53 | 0.64 | exemplary GLP-1/GIP co-agonist peptides | 91.18 |  |  |  |  |  | 
CC[C@H](C)[C@H](NC(=O)[C@H](CO)NC(=O)[C@H](Cc1ccc(O)cc1)NC(=O)[C@H](CC(=O)O)NC(=O)[C@H](CO)NC(=O)[C@@H](NC(=O)[C@H](Cc1ccccc1)NC(=O)[C@@H](NC(=O)CNC(=O)[C@H](CCC(N)=O)NC(=O)C(C)(C)NC(=O)[C@@H](N)Cc1ccc(O)cc1)[C@@H](C)O)[C@@H](C)O)C(=O)N[C@@H](Cc1ccc(O)cc1)C(=O)N[C@@H](CC(C)C)C(=O)N[C@@H](CC(=O)O)C(=O)N[C@H]1CCC(=O)NCCCC[C@@H](C(=O)N[C@@H](CCC(=O)O)C(=O)N[C@@H](Cc2ccccc2)C(=O)N[C@H](C(=O)N[C@@H](CC(N)=O)C(=O)N[C@@H](Cc2c[nH]c3ccccc23)C(=O)N[C@@H](CC(C)C)C(=O)N[C@@H](CC(C)C)C(=O)N[C@@H](C)C(=O)NCC(=O)NCC(=O)N2CCC[C@H]2C(=O)N[C@@H](CO)C(=O)N[C@@H](CO)C(=O)NCC(=O)N[C@@H](C)C(=O)N2CCC[C@H]2C(=O)N2CCC[C@H]2C(=O)N2CCC[C@H]2C(=O)N[C@@H](CO)C(N)=O)C(C)C)NC(=O)[C@H](C)NC(=O)[C@H](C)NC(=O)[C@H](CCC(N)=O)NC1=O [mt-152] (H-Y[Aib]QGTFTSDYSIYLDEQAAKEFVNWLLAGGPSSGAPPPS-NH2; lactam 16-20; N-terminus assumed) |  | 168.75 | 36.52 | exemplary GLP-1/GIP/glucagon triagonist peptides | 41.19 |  |  |  |  |  | 
CC[C@H](C)[C@H](NC(=O)[C@H](CO)NC(=O)[C@H](Cc1ccc(O)cc1)NC(=O)[C@H](CC(=O)O)NC(=O)[C@H](CO)NC(=O)[C@@H](NC(=O)[C@H](Cc1ccccc1)NC(=O)[C@@H](NC(=O)CNC(=O)[C@H](CCC(=O)O)NC(=O)C(C)(C)NC(=O)[C@@H](N)Cc1ccc(O)cc1)[C@@H](C)O)[C@@H](C)O)C(=O)N[C@@H](Cc1ccc(O)cc1)C(=O)N[C@@H](CC(C)C)C(=O)N[C@@H](CC(=O)O)C(=O)N[C@H]1CCC(=O)NCCCC[C@@H](C(=O)N[C@@H](CCC(=O)O)C(=O)N[C@@H](Cc2ccccc2)C(=O)N[C@H](C(=O)N[C@@H](CC(N)=O)C(=O)N[C@@H](Cc2c[nH]c3ccccc23)C(=O)N[C@@H](CC(C)C)C(=O)N[C@@H](CC(C)C)C(=O)N[C@@H](C)C(=O)NCC(=O)N[C@@H](CCCNC(=N)N)C(=O)N2CCC[C@H]2C(=O)N[C@@H](CO)C(=O)N[C@@H](CO)C(=O)NCC(=O)N[C@@H](C)C(=O)N2CCC[C@H]2C(=O)N2CCC[C@H]2C(=O)N2CCC[C@H]2C(=O)N[C@@H](CO)C(=O)N[C@@H](CS)C(N)=O)C(C)C)NC(=O)[C@H](C)NC(=O)[C@H](C)NC(=O)[C@H](CCC(N)=O)NC1=O [mt-204] (H-Y[Aib]EGTFTSDYSIYLDEQAAKEFVNWLLAGRPSSGAPPPSC-NH2; lactam 16-20; N-terminus assumed) | 0.018 | 161.11 | 0.06 | exemplary GLP-1/GIP co-agonist peptides | 19.73 | 108 | 0.147 |  |  |  | 
CCCCCCCCCCCCCCCCCC(=O)NCCCC[C@H](NC(=O)[C@H](CO)NC(=O)[C@@H]1CCCN1C(=O)[C@@H]1CCCN1C(=O)[C@@H]1CCCN1C(=O)[C@H](C)NC(=O)CNC(=O)[C@H](CO)NC(=O)[C@H](CO)NC(=O)[C@@H]1CCCN1C(=O)CNC(=O)CNC(=O)[C@H](C)NC(=O)[C@H](CC(C)C)NC(=O)[C@H](CC(C)C)NC(=O)[C@H](Cc1c[nH]c2ccccc12)NC(=O)[C@H](CS)NC(=O)[C@@H](NC(=O)[C@H](Cc1ccccc1)NC(=O)[C@H](CCC(=O)O)NC(=O)C(C)(C)NC(=O)[C@H](C)NC(=O)[C@H](C)NC(=O)[C@H](CCC(N)=O)NC(=O)[C@H](CCCCN)NC(=O)[C@H](CC(=O)O)NC(=O)[C@H](CC(C)C)NC(=O)[C@H](Cc1ccc(O)cc1)NC(=O)[C@@H](NC(=O)[C@H](CO)NC(=O)[C@H](Cc1ccc(O)cc1)NC(=O)[C@H](CC(=O)O)NC(=O)[C@H](CO)NC(=O)[C@@H](NC(=O)[C@H](Cc1ccccc1)NC(=O)[C@@H](NC(=O)CNC(=O)[C@H](CCC(=O)O)NC(=O)C(C)(C)NC(=O)[C@@H](N)Cc1ccc(O)cc1)[C@@H](C)O)[C@@H](C)O)[C@@H](C)CC)C(C)C)C(N)=O [mt-307] |  |  |  | exhibited activity at the GIP, GLP-1, and glucagon receptors |  |  |  | 113.29 | 0.288 | 16.61 | 128.35
